Results from PMC12520178, “Turn-engineering tunes the conformational rigidity of β-hairpin AMPs in achieving membrane selectivity and killing drug-resistant ESKAPE pathogens” (Chemical Science, 2025).
Converted amounts (≈) assume the structure as drawn. Where a SMILES comes first, the peptide text is derived from it. [ ]: non-standard residue; d: D form. dNMeR = CN[C@H](CCCNC(=N)N)C(=O)O

Key:
Staphylococcus aureus = test: microbe, parasite or virus in culture; format: cell-based
[1] = Rapid equilibrium dialysis (RED) plasma protein binding; settings: plasma spiked with 100 μM peptide, buffer pH 7.4, 37 °C, 4 h, HPLC
[2] = system: polymyxin B-resistant A. baumannii; settings: induced polymyxin B-resistant A. baumannii
Escherichia coli = format: cell-based
Klebsiella pneumoniae = format: cell-based
Pseudomonas aeruginosa = format: cell-based
[3] = Acute in-vivo toxicity assessment; settings: mice
[4] = system: polymyxin B-resistant P. aeruginosa; settings: induced polymyxin B-resistant P. aeruginosa
human red blood cells = settings: red cells of human
[5] = system: human peripheral blood mononuclear cells (PBMCs); settings: 24 h, 40
Acinetobacter baumannii = format: cell-based
Proteinase K = Proteinase K (Parengyodontium album, UniProt P06873); test: Proteolytic digestion with Proteinase K; format: in vitro ADME; settings: 100 µM peptide, 1X TBS pH 7.5, ratio 1:200, 37 °C, HPLC, 0 to 720 min
Protocol: Figure S15: Proteolytic degradation profiles of a. 4d and b. 4f after incubation with Proteinase K. The five overlaid chromatograms represent […] different time-points: 0 min, 2 min, 60 min, 480 min and 720 min. The identity of the peptide at different time points were monitored using MALDI-TO F.
Figure S16: a. PI uptake by A. baumannii and S. aureus, when treated with different concentrations of 4f for 10 min, monitored using flow-cytometry. b. SEM images of untreated control cells and 5 times of […]
Radial Distribution Function
The radial distribution function (g(r)) was computed to investigate the local density of specific lipid headgroups around key peptide residues. […]
The interaction energy between the peptide and membrane components was computed to quantify the binding affinity and identify the driving forces for the interaction. Using GROMACS, the production trajectories were re-analyzed by defining energy groups for the protein and different membrane components. […]
The metabolic stability of peptides (1,1d,1f and 3,3d,3f) were evaluated against two proteases-chymotrypsin and trypsin at a concentration of 100 µM. The metabolic stability of 4f was evaluated by incubating 100 µM of peptide with a more promiscuous enzyme i.e. Proteinase K. Peptides were incubated with different enzyme to peptide ratio for different time intervals at 37 ° C. […]

Chain of Proteinase K (P06873 106-384): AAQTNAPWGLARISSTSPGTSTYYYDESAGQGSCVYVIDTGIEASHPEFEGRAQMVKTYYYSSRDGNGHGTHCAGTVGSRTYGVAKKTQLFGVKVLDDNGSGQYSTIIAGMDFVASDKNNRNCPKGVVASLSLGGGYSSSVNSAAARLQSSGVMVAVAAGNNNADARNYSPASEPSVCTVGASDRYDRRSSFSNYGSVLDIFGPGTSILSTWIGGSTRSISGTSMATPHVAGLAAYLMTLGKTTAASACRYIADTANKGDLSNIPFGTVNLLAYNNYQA

## CC[C@@H](C)[C@@H](NC(=O)[C@@H](CCCNC(=N)N)N(C)C(=O)[C@H](C)NC(=O)[C@@H](Cc1ccc(O)cc1)NC(=O)[C@H](NC(=O)[C@H](NC(=O)[C@@H](CCCNC(=N)N)NC(=O)[C@@H](Cc1ccccc1)NC(=O)[C@H](NC(=O)[C@@H](Cc1c[nH]c2ccccc12)NC(=O)[C@H](N)CCCCN)[C@H](C)O)C(C)C)[C@H](C)O)C(=O)N[C@@H](C(=O)N[C@H](Cc1ccc(O)cc1)C(=O)N[C@H](CCCNC(=N)N)C(=O)N[C@H](CCCNC(=N)N)C(=O)N[C@@H](C(=O)N[C@H](CCCNC(=N)N)C(N)=O)[C@H](C)O)[C@H](C)O [4f] (H-[dK][dW][dT][dF][dR][dV][dT][dY]A[dNMeR][dI][dT][dY][dR][dR][dT][dR]-NH2)
Staphylococcus aureus
  MIC (μM) sa: 0.8 µM (≈ 1.83 µg/mL)
[1]
  plasma protein binding: very high plasma protein binding
[2]
  MIC: 1.6 µM (≈ 3.66 µg/mL)
Escherichia coli
  MIC90: 0.4 µM (≈ 0.915 µg/mL)
  MIC (μM) ec: 0.4 µM (≈ 0.915 µg/mL)
Klebsiella pneumoniae
  MIC (μM) kp: 1.6 µM (≈ 3.66 µg/mL)
Pseudomonas aeruginosa
  MIC (μM) pa: 1.2 µM (≈ 2.75 µg/mL)
[3]; 10 mg kg^−1, intraperitoneally, monitored till 72 h
  signs of acute toxicity: no signs of toxicity
[3]; 20 mg kg^−1, intraperitoneally, at 48 h, transient
  signs of acute toxicity: mild symptoms such as wrinkled skin and loss in body weight
[3]; 40 mg kg^−1, intraperitoneally
  signs of acute toxicity: Visible signs of toxicity such as wrinkled skin, poor motility, and loss in body weight
[3]; 10, 20 and 40 mg kg^−1, intraperitoneally
  mortality: none of the doses led to mortality
[4]
  MIC: 2.4 µM (≈ 5.49 µg/mL)
Human red blood cells
  MHC10 (μM), minimum hemolytic concentration: 50 µM
[5]
  median viability of PBMCs: ~85%
Acinetobacter baumannii
  MIC (μM) ab: 1.6 µM (≈ 3.66 µg/mL)
Proteinase K
  protection against proteolysis: total protection against proteolysis
